Tests used:
[1] = test system: Mamu-E restricted CD8^+ T cells; format: cell-based, rhesus macaques (Macaca mulatta)
HLA-E*01:03 = HLA-E*01:03 (Homo sapiens, UniProt P13747); assay: Single-chain peptide-β2m-HC construct, HLA-E surface expression in transfected 293T cells; format: cell-based; conditions: peptide encoded in single-chain peptide-β2M-HC construct, 24 h after transfection, flow cytometry, scaled to index position 2 residue, n = 4

Sequence | Magnitude of CD8+ T cell responses to Mtb44 and position 2 variants [1] | Relative HLA-E surface expression (MFI, 3D12 antibody) (HLA-E*01:03)
RQPAKAPLL [Mtb44*P2-Gln] | responses of similar magnitude | 
RLPAKAPLL [Mtb44] | responses of similar magnitude | 
RFPAKAPLL [Mtb44*P2-Phe] | responses of similar magnitude | highest relative levels of HLA-E surface expression

Reference: publication PMC6081459, “Pathogen-derived HLA-E bound epitopes reveal broad primary anchor pocket tolerability and conformationally malleable peptide binding” (Nature Communications, 2018)
